Results reported in article PMC8152350, “High cytotoxicity of betulin towards fish and murine fibroblasts: Is betulin safe for nonneoplastic cells?” (BMC Veterinary Research, 2021).
Values after ≈ are worked out from the molar mass of the structure shown. Like-named read-outs stand apart in the source and are kept apart here.

What was measured:
[1] = tested on: K562; parameters: method as in PMID 12697374; conditions: K562 leukaemia; read-out: IC50 of betulin; cited from earlier work
[2] = tested on: GOTO; parameters: method as in PMID 12697374; conditions: GOTO neuroblastoma; read-out: IC50 of betulin; cited from earlier work
[3] = tested on: B16 cells (B164A5 and B16F10); parameters: method as in PMID 25756279; conditions: B16 melanoma cells; cited from earlier work
[4] = tested on: B16-F1 (mouse melanoma); parameters: method as in PMID 16787747; conditions: read-out: IC50 of betulin; cited from earlier work
[5] = tested on: human skin fibroblasts (HSF); conditions: 24-h exposure, cited from earlier work
[6] = in vitro; type: cell-based, mouse; conditions: mouse
Experimental: (§1) All experiments were repeated three times.
(§2) The sulforhodamine B colorimetric assay measures the cellular protein content, and the assay results are proportional to the number of cells.
(§3) The SRB assay was performed using a commercially available kit (TOX6) (Sigma-Aldrich, Poland) according to the manufacturer’s protocol. In this assay, SRB binds to protein components of trichloroacetic acid-fixed cells, and the protein-bound dye is extracted with Tris. The results obtained are presented as the percentage of the total cellular protein content in control (nontreated) cells.

[7] = tested on: NIH/3T3 cells; assay: in vitro; type: cell-based, mouse; conditions: NIH/3T3, 72 h
Experimental: as §1, §2, §3

[8] = tested on: G361; parameters: method as in PMID 12697374; conditions: G361 melanoma; read-out: IC50 of betulin; cited from earlier work
[9] = tested on: HL60; parameters: method as in PMID 12697374; conditions: HL60 leukaemia; read-out: IC50 of betulin; cited from earlier work
[10] = tested on: BF-2 cells; assay: SRB assay (total cellular protein content), fish fibroblasts; type: cell-based, bluegill; conditions: BF-2
Experimental: (§4) BF-2 (ATCC CCL-91) bluegill caudal trunk fibroblasts were grown in minimum essential medium (Eagle, EBSS) supplemented with 1 % nonessential amino acids (NEAAs), 10 % foetal bovine serum and 1 % antibiotic-antimycotic solution at 23 °C in a humidified atmosphere with 5 % CO2.
as §1, §2, §3

[11] = as above; type: cell-based, bluegill; conditions: bluegill, BF-2 caudal trunk fibroblasts, n = 3
Experimental: as §4, §1, §2, §3

[12] = tested on: U937; parameters: method as in PMID 12697374; conditions: U937 leukaemia; read-out: IC50 of betulin; cited from earlier work
[13] = MTT assay (mitochondrial activity), murine fibroblasts; conditions: mouse
Experimental: (§5) NIH/3T3 (ATCC CRL-1658) mouse embryonic fibroblasts were grown in Dulbecco’s modified Eagle’s medium (DMEM) supplemented with 2 mM glutamine, 10 % foetal bovine serum and a 1 % antibiotic-antimycotic solution at 37 °C in a humidified atmosphere with 5 % CO2.
(§6) NIH/3T3 and BF-2 cells were seeded in 96-well plates at a density of 1 × 10^4 or 2 × 10^4 cells per well, respectively. After 24 h of incubation at an appropriate temperature, cells were exposed to betulin at the concentrations mentioned above for 24, 48 and 72 h. Control (untreated) cells served as the negative control and a reference point. Triton X-100 treated cells served as the positive internal control in MTT, NRU and LDH assays. Due to the specific character of SRB assay, there was no positive control in this test. After 24, 48 and 72 h of treatment, the four different cytotoxicity assays were performed. All experiments were repeated three times.
(§7) The MTT assay is used to estimate mitochondrial damage, since it determines the activity of mitochondrial enzymes. These enzymes reduce the water-soluble tetrazolium dye MTT to insoluble purple formazan, which accumulates inside viable cells.
(§8) The MTT assay was conducted using the protocol described by Mosmann, with some modifications described in our previous article.
(§9) The MTT assay was used to determine the cytotoxicity of both betulin and the vehicle (DMSO).
(§10) All experiments were repeated three times. […] Statistical analyses were performed using GraphPad Prism software (GraphPad Software, USA). Data were subjected to one-way analysis of variance (ANOVA). Dunnett’s posttest was used to determine differences between control and betulin-exposed cells at the same time points. Differences between the two cell lines at the same time points were determined using Student’s t-test. The 50 % cytotoxic concentrations (CC50, defined as the concentration of the compound that reduced cell viability by 50 %) were calculated using the Quest Graph™ ED50 Calculator (AAT Bioquest, Inc.).

[14] = tested on: NIH/3T3 cells; assay: as above
Experimental: as §5, §6, §7, §8, §9, §10

[15] = tested on: BF-2 cells; assay: NRU assay (lysosomal membrane integrity), fish fibroblasts; type: cell-based, bluegill; conditions: BF-2, regardless of the time of incubation
Experimental: as §4, §1
(§11) The NRU assay evaluates lysosomal membrane integrity. It measures neutral red dye accumulation within lysosomes of viable cells.
(§12) The NRU assay was performed using a commercially available kit (TOX4) (Sigma-Aldrich, Poland) according to the manufacturer’s protocol. The full description of the test procedure was also provided in a published article.

[16] = as above; type: cell-based, bluegill; conditions: bluegill, BF-2 caudal trunk fibroblasts, mean ± SD, n = 3
Experimental: as §4, §1, §11, §12

[17] = Solubility of betulin in DMSO; type: physicochemical; conditions: organic solvent or mixture, thermodynamic from solid, room temperature, read-out: maximum solubility of betulin in DMSO
Experimental: We were able to dissolve 5000 µg of betulin in 1 mL of DMSO, although it required heating, and the solution remained unstable. After mixing with the cell culture medium, the solution immediately became slightly turbid.
A stock solution of betulin was prepared in DMSO at a concentration of 2500 µg/mL, and working solutions were prepared in cell maintenance media (serum-free) at final concentrations of 0 (control cells), 0.244, 0.488, 0.976, 1.95, 3.9, 7.8, 15.625 and 31.25 µg/mL immediately before use in cell culture.

C=C(C)[C@@H]1CC[C@]2(CO)CC[C@]3(C)[C@H](CC[C@@H]4[C@@]5(C)CC[C@H](O)C(C)(C)[C@@H]5CC[C@]43C)[C@@H]12 [betulin, Betulin]
IC50 [1]: 14.5 µM | IC50 [2]: 17.1 µM | betulin concentration from which almost complete lack of cell mitochondrial activity was observed (MTT) [3]: ≥ 15 µM | IC50 [4]: 13.8 µM | betulin concentrations causing considerable LDH leakage, converted ([5]; conversion of µM value): ≥ 4.4 µg/mL | betulin concentrations not toxic, converted ([5]; conversion of µM value): ≤ 2.2 µg/mL | betulin concentrations causing considerable LDH leakage [5]: ≥ 10 µM | betulin concentrations not toxic [5]: up to 5 µM | CC50 ([6]; NIH/3T3, 24 h, mean ± SD, n = 3, read-out: CC50 betulin SRB 24 h): 10.9 ± 7.34 µg/mL (≈ 24.6 µM) | CC50 ([6]; NIH/3T3, 48 h, mean ± SD, n = 3, read-out: CC50 betulin SRB 48 h): 4.05 ± 1.24 µg/mL (≈ 9.15 µM) | CC50 ([6]; NIH/3T3, 72 h, mean ± SD, n = 3, read-out: CC50 betulin SRB 72 h): 3.76 ± 0.572 µg/mL (≈ 8.48 µM) | CC50 ([6]; NIH/3T3, depending on incubation time (24-72 h), read-out: CC50 of betulin in SRB assay, range over incubation times): 3.76 to 10.9 µg/mL (≈ 8.48 to 24.6 µM) | betulin concentration causing considerable decrease in total cellular protein content (SRB) [7]: ≥ 1.95 µg/mL | IC50 [8]: 12.4 µM | IC50 [9]: 14.7 µM | betulin concentration causing considerable decrease in the number of cells (SRB) [10]: at least 15.625 µg/mL | CC50 at 24 h ([11]; BF-2, 24 h, read-out: CC50 betulin SRB 24 h): > 31.2 µg/mL | CC50 at 48 h ([11]; BF-2, 48 h, read-out: CC50 betulin SRB 48 h): > 31.2 µg/mL | CC50 at 72 h ([11]; BF-2, 72 h, read-out: CC50 betulin SRB 72 h): > 31.2 µg/mL | IC50 [12]: 14.4 µM | CC50 at 24 h [13]: 1.532 ± 0.005 µg/mL (≈ 3.46 µM) | CC50 at 48 h [13]: 1.58 ± 0.64 µg/mL (≈ 3.58 µM) | CC50 at 72 h [13]: 1.85 ± 0.647 µg/mL (≈ 4.19 µM) | decrease in cell viability in the MTT assay ([14]; NIH/3T3, betulin 7.8 µg/mL, 72 h): approximately 80% | betulin concentration causing statistically significant decrease in viability (MTT) ([14]; mouse cells, 24 h, threshold persisted until termination of the experiment): ≥ 1.95 µg/mL | betulin concentration causing considerable decrease in viability (NRU) [15]: at least 15.625 µg/mL | CC50 at 24 h ([16]; BF-2, 24 h, read-out: CC50 betulin NRU 24 h): 27.6 ± 9.01 µg/mL (≈ 62.4 µM) | CC50 at 48 h ([16]; BF-2, 48 h, read-out: CC50 betulin NRU 48 h): 16.5 ± 3.6 µg/mL (≈ 37.2 µM) | CC50 at 72 h ([16]; BF-2, 72 h, read-out: CC50 betulin NRU 72 h): 14.5 ± 3.41 µg/mL (≈ 32.8 µM) | solubility [17]: 2500 µg/mL (≈ 5650 µM)
